Experimental data: ChEMBL document CHEMBL3259753, “Synthesis, structure-activity relationships and biological evaluation of dehydroandrographolide and andrographolide derivatives as novel anti-hepatitis B virus agents” (Bioorg Med Chem Lett, 2014)

Key:
Hepatitis B virus [1] = experiment: Antiviral activity against HBV infected in human HepG2.2.15 cells assessed as inhibition of hepatitis B surface antigen secretion by ELISA; type: functional, organism-based; settings: HepG2 2.2.15
[2] = Cytotoxicity against human HepG2.2.15 cells by MTT assay; type: cell-based, HepG2 2.2.15
Hepatitis B virus [3] = experiment: Antiviral activity against HBV infected in human HepG2.2.15 cells assessed as inhibition of DNA replication; type: functional, organism-based; settings: HepG2 2.2.15
Hepatitis B virus [4] = experiment: Antiviral activity against HBV infected in human HepG2.2.15 cells assessed as inhibition of hepatitis B e antigen secretion by ELISA; type: functional, organism-based; settings: HepG2 2.2.15
[5] = Selectivity index, ratio of CC50 for human HepG2.2.15 cells to IC50 for HBV infected in human HepG2.2.15 cells assessed as inhibition of hepatitis B e antigen secretion; type: functional
[6] = Selectivity index, ratio of CC50 for human HepG2.2.15 cells to IC50 for HBV infected in human HepG2.2.15 cells assessed as inhibition of DNA replication; type: functional
[7] = Selectivity index, ratio of CC50 for human HepG2.2.15 cells to IC50 for HBV infected in human HepG2.2.15 cells assessed as inhibition of hepatitis B surface antigen secretion; type: functional

IC50 (Hepatitis B virus [1]) [µM] | IC50 (Hepatitis B virus [3]) [µM] | IC50 (Hepatitis B virus [4]) [µM] | Structure (SMILES) | CC50 [2] [µM] | Ratio CC50/IC50 [5] | Ratio CC50/IC50 [6] | Ratio CC50/IC50 [7]
1160 | 47.6 | 243 | C=C1CC[C@@H]2[C@](C)(COC(=O)CCC(=O)O)[C@H](OC(=O)CCC(=O)O)CC[C@@]2(C)[C@@H]1C/C=C1\C=COC1=O | 32 | – | – | –
1640 | – | 1220 | C=C1CC[C@@H]2[C@](C)(COC(=O)c3cccs3)[C@H](OC(=O)c3cccs3)CC[C@@]2(C)[C@@H]1C/C=C1\C=COC1=O | 1370 | 1.1 | – | –
210 | 46.6 | 516 | C=C1CC[C@@H]2[C@](C)(COC(=O)/C=C/c3ccccc3)[C@H](O)CC[C@@]2(C)[C@@H]1C/C=C1\C=COC1=O | 271 | – | 5.8 | –
565 | 69.5 | 2230 | C=C1CC[C@@H]2[C@](C)(COC(C)=O)[C@H](O)CC[C@@]2(C)[C@@H]1/C=C/C1=CCOC1=O | 225 | – | 3.2 | –
1010 | 455 | 1390 | C=C1CC[C@@H]2[C@](C)(COC(=O)CCCC)[C@H](OC(=O)CCCC)CC[C@@]2(C)[C@@H]1C/C=C1\C=COC1=O | 757 | – | – | –
753 | 53.1 | 518 | C=C1CC[C@@H]2[C@](C)(CO)[C@H](OC(=O)/C=C/c3cc(OC)c(OC)c(OC)c3)CC[C@@]2(C)[C@@H]1C/C=C1\C=COC1=O | 211 | – | 3 | –
> 1830 | > 458 | > 253 | C=C1CC[C@@H]2[C@](C)(COC(=O)/C=C/c3cc(OC)c(OC)c(OC)c3)[C@H](OC(=O)/C=C/c3cc(OC)c(OC)c(OC)c3)CC[C@@]2(C)[C@@H]1C/C=C1\C=COC1=O | > 1830 | – | – | –
> 1710 | > 429 | > 1710 | C=C1CC[C@@H]2[C@](C)(COC(=O)CCCC(=O)O)[C@H](OC(=O)CCCC(=O)O)CC[C@@]2(C)[C@@H]1/C=C/C1=CCOC1=O | > 1710 | – | – | –
207 | 136 | 59.8 | C=C1CC[C@@H]2[C@](C)(COC(=O)/C=C/c3cccc(Cl)c3)[C@H](O)CC[C@@]2(C)[C@@H]1/C=C/C1=CCOC1=O | 147 | 2.5 | – | –
1410 | 242 | 1860 | C=C1CC[C@@H]2[C@](C)(COC(=O)c3ccco3)[C@H](OC(=O)c3ccco3)CC[C@@]2(C)[C@@H]1/C=C/C1=CCOC1=O | 1110 | – | 4.6 | –
– | 104 | – | C=C1CC[C@@H]2[C@](C)(COC(=O)c3ccccc3C(=O)O)[C@H](OC(=O)c3ccccc3C(=O)O)CC[C@@]2(C)[C@@H]1/C=C/C1=CCOC1=O | > 1620 | – | >15.6 | –
> 1140 | 16.3 | > 974 | C=C1CC[C@@H]2[C@](C)(COC(=O)c3cccnc3)[C@H](O)CC[C@@]2(C)[C@@H]1C/C=C1\C=COC1=O | 2050 | – | 126 | –
– | 23.2 | – | C=C1CC[C@@H]2[C@](C)(CO)[C@H](O)CC[C@@]2(C)[C@@H]1C/C=C(/C(=O)O)[C@H](O)CO | 182 | – | 7.8 | –
> 1920 | > 664 | > 1920 | C=C1CC[C@@H]2[C@](C)(COC(=O)c3cccnc3)[C@H](OC(=O)c3cccnc3)CC[C@@]2(C)[C@@H]1/C=C/C1=CCOC1=O | > 1920 | – | – | –
41 | 8.1 | > 2200 | C=C1CC[C@@H]2[C@](C)(CO)[C@H](OC(=O)c3cccs3)CC[C@@]2(C)[C@@H]1C/C=C1\C=COC1=O | 257 | – | 31.8 | 6.2
1320 | 39.4 | 293 | C=C1CC[C@@H]2[C@](C)(COC(=O)c3ccccc3C(=O)O)[C@H](O)CC[C@@]2(C)[C@@H]1C/C=C1\C=COC1=O | 450 | 1.5 | 11.4 | –
394 | 263 | – | C=C1CC[C@H]2[C@@](C)(CCC(=O)[C@@]2(C)C=O)[C@@H]1/C=C/C1=CCOC1=O | 275 | – | 1.1 | –
– | 21.4 | > 949 | C=C1CC[C@@H]2[C@](C)(COC(=O)c3ccco3)[C@H](O)CC[C@@]2(C)[C@@H]1C/C=C1\C=COC1=O | > 2150 | – | >100.5 | –
565 | 69.5 | 2230 | C=C1CC[C@@H]2[C@](C)(COC(=O)CCCC)[C@H](O)CC[C@@]2(C)[C@@H]1C/C=C1\C=COC1=O | 225 | – | 3.2 | –

IC50 (Hepatitis B virus [1]) [µM] | IC50 (Hepatitis B virus [3]) [µM] | IC50 (Hepatitis B virus [4]) [µM] | Structure (SMILES) | CC50 [2] [µM] | Ratio CC50/IC50 [5] | Ratio CC50/IC50 [6] | Ratio CC50/IC50 [7]
– | 22 | 218 | C=C1CC[C@@H]2[C@](C)(COC(=O)c3ccccc3C(=O)O)[C@H](OC(=O)c3ccccc3C(=O)O)CC[C@@]2(C)[C@@H]1C/C=C1\C=COC1=O | > 2040 | >9.4 | >92.8 | –
777 | 25.2 | 586 | C=C1CC[C@@H]2[C@](C)(CO)[C@H](OC(=O)c3ccco3)CC[C@@]2(C)[C@@H]1C/C=C1\C=COC1=O | 42 | – | 1.7 | –
1390 | 0.71 | – | C[C@H](Cn1cnc2c(N)ncnc21)OCP(=O)(O)O [TENOFOVIR ANHYDROUS] | > 1720 | >1.4 | >2417.3 | >1.2
625 | 69.8 | 208 | C=C1CC[C@@H]2[C@](C)(CO)[C@H](OC(=O)CCCC)CC[C@@]2(C)[C@@H]1C/C=C1\C=COC1=O | 126 | – | 1.82 | –
> 1930 | > 483 | > 1930 | C=C1CC[C@@H]2[C@](C)(COC(=O)COCC(=O)O)[C@H](OC(=O)COCC(=O)O)CC[C@@]2(C)[C@@H]1/C=C/C1=CCOC1=O | > 1930 | – | – | –
– | 36.6 | 177 | C=C1CC[C@@H]2[C@](C)(COC(=O)c3cc(=O)c4ccccc4o3)[C@H](O)CC[C@@]2(C)[C@@H]1/C=C/C1=CCOC1=O | 171 | 1 | 4.7 | –
1290 | 78 | – | C[C@]1(CO)[C@H]2CC[C@@]3(CO3)[C@@H](/C=C/C3=CCOC3=O)[C@]2(C)CC[C@H]1O | 1840 | – | 23.6 | 1.4
880 | 20.6 | 123 | C=C1CC[C@@H]2[C@](C)(COC(=O)c3ccccc3)[C@H](O)CC[C@@]2(C)[C@@H]1C/C=C1\C=COC1=O | 82 | – | 4 | –
– | 22.3 | – | C=C1CC[C@@H]2[C@](C)(COC(=O)/C=C/c3cc(OC)c(OC)c(OC)c3)[C@H](O)CC[C@@]2(C)[C@@H]1C/C=C1\C=COC1=O | 325 | – | 14.6 | –
951 | 51.3 | 815 | C=C1CC[C@H]2[C@@](C)(CCC(=O)[C@@]2(C)C=O)[C@@H]1C/C=C1/C(=O)OC[C@H]1O | 155 | – | 3 | –
261 | 38.4 | 714 | C=C1CC[C@@H]2[C@](C)(CO)[C@H](OC(=O)c3cccnc3)CC[C@@]2(C)[C@@H]1C/C=C1\C=COC1=O | 337 | – | 8.8 | 1.3
> 1970 | > 513 | 1480 | C=C1CC[C@@H]2[C@](C)(COC(=O)/C=C/c3cccc(OC)c3)[C@H](O)CC[C@@]2(C)[C@@H]1/C=C/C1=CCOC1=O | > 1970 | – | – | –
1840 | 13.4 | 1950 | C=C1CC[C@@H]2[C@](C)(C=O)[C@H](O)CC[C@@]2(C)[C@@H]1/C=C/C1=CCOC1=O | 122 | – | 9.1 | –
– | 394 | 562 | C=C1CC[C@@H]2[C@](C)(CO)[C@H](O)CC[C@@]2(C)[C@@H]1/C=C/C1=CC(C(C)(C)O)OC1=O (stereo not given in full) | 122 | – | – | –
> 2310 | > 584 | 217 | C=C1CC[C@@H]2[C@](C)(COC(=O)c3cccnc3OC)[C@H](O)CC[C@@]2(C)[C@@H]1/C=C/C1=CCOC1=O | 1340 | 6.2 | – | –
877 | 21.6 | 118 | C=C1CC[C@@H]2[C@](C)(CO)[C@H](OC(=O)c3ccccc3)CC[C@@]2(C)[C@@H]1C/C=C1\C=COC1=O | 103 | – | 4.8 | –
518 | 169 | – | C=C1CC[C@H]2[C@@](C)(CCC(=O)[C@@]2(C)C=O)[C@@H]1C/C=C1\C=COC1=O | 964 | – | 5.7 | 1.9
1010 | 455 | 1390 | C=C1CC[C@@H]2[C@](C)(COC(C)=O)[C@H](OC(C)=O)CC[C@@]2(C)[C@@H]1/C=C/C1=CCOC1=O | 757 | – | – | –
466 | 30.7 | 1170 | C=C1CC[C@@H]2[C@](C)(CO)[C@H](OC(=O)/C=C/c3ccccc3)CC[C@@]2(C)[C@@H]1C/C=C1\C=COC1=O | 179 | – | 5.8 | –
